Data on nine compounds can be found in ChEMBL document CHEMBL5131383, “Structure-based design, synthesis, and evaluation of inhibitors with high selectivity for PARP-1 over PARP-2” (Eur J Med Chem, 2022).

pIC50: −log10 of the molar value. Active and inactive are the calls of the source. The rule behind the calls is not given here.

Data set [1] has as its target T1, Poly [ADP-ribose] polymerase 1 (Homo sapiens, UniProt P09874). Kind of data set: Inhibition of human PARP1 using NAD+ as substrate at 5 nM incubated for 1 hr by ELISA relative to control. In general terms: In an ELISA, binding on a coated surface is turned into a signal by an enzyme label.
In data set [2] the target is T2, Poly [ADP-ribose] polymerase 2 (Homo sapiens, UniProt Q9UGN5). The data set can be described thus: Inhibition of human PARP2 using NAD+ as substrate at 5 nM incubated for 1 hr by ELISA relative to control.
T2 sequence (Q9UGN5 whole entry): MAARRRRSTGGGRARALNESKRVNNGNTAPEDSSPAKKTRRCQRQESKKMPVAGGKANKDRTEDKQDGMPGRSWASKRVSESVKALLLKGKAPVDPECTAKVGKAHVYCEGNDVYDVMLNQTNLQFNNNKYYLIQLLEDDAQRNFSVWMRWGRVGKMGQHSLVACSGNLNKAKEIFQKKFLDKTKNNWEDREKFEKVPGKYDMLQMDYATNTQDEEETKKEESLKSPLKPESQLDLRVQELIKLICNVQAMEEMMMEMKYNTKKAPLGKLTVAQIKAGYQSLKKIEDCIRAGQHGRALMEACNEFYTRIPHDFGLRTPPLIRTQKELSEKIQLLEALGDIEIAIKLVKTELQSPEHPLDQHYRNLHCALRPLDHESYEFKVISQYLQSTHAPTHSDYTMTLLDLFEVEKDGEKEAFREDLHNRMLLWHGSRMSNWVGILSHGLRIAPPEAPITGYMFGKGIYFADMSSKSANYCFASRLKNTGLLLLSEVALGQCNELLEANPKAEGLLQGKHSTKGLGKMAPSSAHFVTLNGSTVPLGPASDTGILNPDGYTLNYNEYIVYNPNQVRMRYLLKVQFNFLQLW
Data set [3] has as its target T1, Poly [ADP-ribose] polymerase 1. The data set can be described thus: Inhibition of human PARP1 using NAD+ as substrate incubated for 1 hr by ELISA.
Data set [4] addresses T2, Poly [ADP-ribose] polymerase 2. The data set can be described thus: Inhibition of human PARP2 using NAD+ as substrate incubated for 1 hr by ELISA.
The species named for another data set is Homo sapiens. The data set can be described thus: Selectivity index, ratio of IC50 for human PARP2 to IC50 for human PARP1.
The next data set has as its system MX1. Kind of data set: Antiproliferative activity against human BRCA mutant MX1 cells assessed as inhibition of cell growth incubated for 48 hrs by MTT assay. It counts as functional, cell-based. The settings on record: MX1, 48 h.
Another data set concerns MCF7. Kind of data set: Antiproliferative activity against human MCF7 cells assessed as inhibition of cell growth incubated for 48 hrs by MTT assay. The settings on record: MCF7, 48 h. In kind it is functional, cell-based. On the technique in general: Tetrazolium assays rely on reduction of a dye to a coloured formazan, in cell work by metabolically active cells.
The subject of data set [5] is A549. The data set can be described thus: Antiproliferative activity against human A549 cells assessed as inhibition of cell growth incubated for 48 hrs by MTT assay. It counts as functional, cell-based. The settings on record: A549, 48 h.
In the next data set the test system is MDA-MB-436. The data set can be described thus: Antitumor activity against human BRCA1 mutant MDA-MB-436 cells xenografted athymic BALB/c mouse assessed as inhibition of tumor volume at 50 mg/kg/day, po administered for 18 days and measured twice weekly. In kind it is functional, organism-based. The settings on record: time 18.0 day. On the technique in general: In xenograft studies the graft and the host belong to different species.

The nature of data set [6]: Toxicity athymic BALB/c mouse xenografted with human BRCA1 mutant MDA-MB-436 cells assessed as change in body weight at 50 mg/kg/day, po administered for 18 days and measured twice weekly. In kind it is organism-based. The settings on record: in vivo, 432 h, time 18 day.
Another data set concerns Mus musculus. The data set can be described thus: In vivo inhibition of PARP1 in athymic BALB/c mouse xenografted with human BRCA1 mutant MDA-MB-436 cells assessed as prevention of PAR formation 50 mg/kg/day, po measured after 48 hrs by Western blot analysis. It counts as functional, organism-based.
Data set [7] deals with A549. The data set can be described thus: […] human A549 cells assessed as reduction in PAR level measured after 48 hrs by Western blot analysis. The settings on record: dose 2.5-10 µM, DDE = dose-dependent effect. In kind it is functional, cell-based.

T1 sequence (P09874 whole entry): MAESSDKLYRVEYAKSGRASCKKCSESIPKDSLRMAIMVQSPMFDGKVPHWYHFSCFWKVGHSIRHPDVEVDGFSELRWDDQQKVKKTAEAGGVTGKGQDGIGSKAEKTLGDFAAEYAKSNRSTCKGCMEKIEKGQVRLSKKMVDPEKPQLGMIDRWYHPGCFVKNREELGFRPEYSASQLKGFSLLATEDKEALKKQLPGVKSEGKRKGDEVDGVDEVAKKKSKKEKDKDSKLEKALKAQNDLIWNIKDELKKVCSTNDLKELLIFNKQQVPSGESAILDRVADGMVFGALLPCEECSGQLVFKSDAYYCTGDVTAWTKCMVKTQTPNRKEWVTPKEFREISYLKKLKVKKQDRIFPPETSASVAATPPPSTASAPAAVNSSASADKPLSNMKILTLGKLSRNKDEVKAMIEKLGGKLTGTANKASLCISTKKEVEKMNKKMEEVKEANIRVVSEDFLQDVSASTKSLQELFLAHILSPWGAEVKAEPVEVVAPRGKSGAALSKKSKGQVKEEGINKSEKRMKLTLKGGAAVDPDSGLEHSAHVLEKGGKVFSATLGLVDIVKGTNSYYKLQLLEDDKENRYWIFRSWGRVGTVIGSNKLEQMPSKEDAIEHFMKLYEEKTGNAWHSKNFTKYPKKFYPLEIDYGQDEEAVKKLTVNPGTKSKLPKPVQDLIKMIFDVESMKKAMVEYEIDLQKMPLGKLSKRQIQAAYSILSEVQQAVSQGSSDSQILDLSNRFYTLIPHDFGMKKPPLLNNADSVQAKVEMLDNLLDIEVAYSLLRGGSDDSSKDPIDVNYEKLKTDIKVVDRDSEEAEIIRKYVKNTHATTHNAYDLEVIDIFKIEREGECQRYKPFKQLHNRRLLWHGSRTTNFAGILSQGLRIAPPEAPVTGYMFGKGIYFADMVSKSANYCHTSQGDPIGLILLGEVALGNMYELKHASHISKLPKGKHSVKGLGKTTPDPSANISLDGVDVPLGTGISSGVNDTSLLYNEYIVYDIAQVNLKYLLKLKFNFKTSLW

In general, inhibition refers to the change of the read-out against control, counted positive when it falls. For orientation: pIC50 means the IC50 on a negative log10 scale, so that one unit is a factor of ten. Turning to `CC(C)(C)OC(=O)NC1CCN(Cc2ccc(-c3[nH]c4cc(F)cc5c4c3CCNC5=O)cc2)CC1`, the figures for the inhibition in data set [1] and in [2] were 82% and 42.4%, respectively. Moreover, the pIC50 in data set [3] is 8.93; in [4], 8.09. Further, in the data set listed under Homo sapiens, the Ratio IC50 is 6.9.

Regarding `CCN(CC)Cc1ccc(-c2[nH]c3cc(F)cc4c3c2CCNC4=O)cc1`, the inhibition in data set [1] turned out to be 94%; in [2] it was 35.2%. Also, the negative logarithm of the IC50 (pIC50) in data set [3] is 9.21; in data set [4], 7.95; with MX1, 4.31; in the data set on MCF7 it was 4.09; in the data set with A549 [5], 4.12.

Regarding `O=C1NCCc2c(-c3ccc(CN4CCN(c5ncccn5)CC4)cc3)[nH]c3cc(F)cc1c23`, the inhibition was 93.7% in data set [1] and 47% in [2]. The values for the pIC50 in data set [3] and in data set [4] were 8.92 and 8.24, respectively. Besides, the Ratio IC50 in the data set filed under Homo sapiens was 4.8.

As for `C[C@@H]1CN(Cc2ccc(-c3[nH]c4cc(F)cc5c4c3CCNC5=O)cc2)CCN1`, the values for the inhibition in data set [1] and in data set [2] were 90.4% and 58.8%, respectively. The negative logarithm of the IC50 (pIC50) in data set [3] was 9.18; in data set [4] it was 8.54; with MX1 it was 4.77; in the data set on MCF7 it was 4.33; in the data set with A549 [5], 4.32. The result with MDA-MB-436 was Active. Further, the Activity result in data set [6] is recorded as “Toxic”. Besides, the inhibition entry in the data set with Mus musculus was “Active”.

For the compound `CC(=O)N1CCN(Cc2ccc(-c3[nH]c4cc(F)cc5c4c3CCNC5=O)cc2)CC1`, the inhibition in data set [1] was found to be 82.9%; in [2], 28.7%. For the same compound, the pIC50 in data set [3] was 8.88; in data set [4], 8.19. In addition, in the data set filed under Homo sapiens, the Ratio IC50 was 4.9.

As for `NC1CCN(Cc2cccc(-c3[nH]c4cc(F)cc5c4c3CCNC5=O)c2)CC1`, the inhibition in data set [1] worked out at 85.8%; in data set [2], 15.3%. The negative-log IC50 (pIC50) is 9.02 in [3]; 7.21 in data set [4]; 5.02 in the data set with MX1; 3.91 in the data set on MCF7; 3.97 with A549 [5]. Moreover, the Activity result with A549 [7] is “Dde”; in data set [6], “Non-Toxic”. Besides, the outcome in the data set on MDA-MB-436 was Active. Besides, in the data set on Mus musculus, the inhibition entry was “Active”.

Take `CNCc1ccc(-c2[nH]c3cc(F)cc4c3c2CCNC4=O)cc1` [RUCAPARIB]: the inhibition was 98% in data set [1] and 77.6% in [2]. For the same compound, the values for the pIC50 in the data set with MX1, with MCF7 and in the data set on A549 [5] were 5.19, 5.18 and 4.49, respectively. For the same compound, the inhibition result with Mus musculus is “Active”.

`NC1CCN(Cc2ccc(-c3[nH]c4cc(F)cc5c4c3CCNC5=O)cc2)CC1`: the inhibition amounted to 95.7% in data set [1] and 63.8% in [2]. Moreover, the pIC50 is 9.39 in [3]; 8.38 in [4]; 4.18 in the data set on MX1; 4.23 with MCF7; 4.07 in the data set on A549 [5].

On to `O=C1NCCc2c(-c3ccc(CN4CCN(CCO)CC4)cc3)[nH]c3cc(F)cc1c23`, for which the inhibition in [1] was found to be 84.5%; in [2], 25.1%. Also, the values for the pIC50 in [3] and in [4] were 8.81 and 8.18, respectively. In addition, in the data set filed under Homo sapiens, the Ratio IC50 was determined as 4.3.
